Measurements taken from publication PMC6072853 (Frontiers in Pharmacology, 2018).

Target: T1, human androgenic receptor (Homo sapiens, UniProt P10275)
T1 construct: host or cells: Saccharomyces cerevisiae
T1 sequence (P10275 1-920): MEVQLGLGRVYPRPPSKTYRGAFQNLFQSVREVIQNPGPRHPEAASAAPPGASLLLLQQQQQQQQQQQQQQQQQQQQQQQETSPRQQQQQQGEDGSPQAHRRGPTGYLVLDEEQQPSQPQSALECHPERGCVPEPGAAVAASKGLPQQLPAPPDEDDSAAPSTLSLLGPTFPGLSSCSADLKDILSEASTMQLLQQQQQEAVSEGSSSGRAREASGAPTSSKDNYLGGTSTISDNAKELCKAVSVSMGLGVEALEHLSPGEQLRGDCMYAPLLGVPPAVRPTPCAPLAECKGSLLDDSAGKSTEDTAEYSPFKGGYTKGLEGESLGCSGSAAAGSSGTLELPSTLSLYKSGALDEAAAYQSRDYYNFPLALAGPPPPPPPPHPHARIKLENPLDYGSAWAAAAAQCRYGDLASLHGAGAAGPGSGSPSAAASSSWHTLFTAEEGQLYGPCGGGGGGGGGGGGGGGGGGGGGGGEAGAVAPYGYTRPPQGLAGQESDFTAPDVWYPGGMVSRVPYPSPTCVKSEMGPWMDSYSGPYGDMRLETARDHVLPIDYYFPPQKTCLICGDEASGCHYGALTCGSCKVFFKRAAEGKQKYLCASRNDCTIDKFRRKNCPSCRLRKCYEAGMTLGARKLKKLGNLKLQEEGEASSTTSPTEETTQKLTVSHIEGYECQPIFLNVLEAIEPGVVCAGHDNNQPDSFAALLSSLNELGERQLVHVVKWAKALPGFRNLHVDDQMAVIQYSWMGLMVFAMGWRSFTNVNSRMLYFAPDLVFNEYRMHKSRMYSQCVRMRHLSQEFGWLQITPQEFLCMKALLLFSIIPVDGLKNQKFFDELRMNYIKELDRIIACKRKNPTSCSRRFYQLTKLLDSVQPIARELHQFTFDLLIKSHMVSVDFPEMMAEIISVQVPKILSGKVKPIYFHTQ
Experiment: Yeast-based androgenic reporter assay, antagonistic
Format: cell-based
Details: in the presence of 5α-dihydrotestosterone
Experimental: An endocrine bioassay kit (Xenometrix AG, Allschwil, Switzerland) was used to test for a potential residual androgenic activity of the selected agents. Genetically modified yeast cells (Saccharomyces cerevisiae) containing the human androgenic receptor gene integrated into a yeast chromosome, as well as an expression plasmid with the sequences of both the androgen responsive element and a lacZ reporter gene were cultured in humidified air at 31°C with agitation for 2 days. The appropriate concentrations of the test compounds and a CPRG substrate solution (chlorophenol red-β-D-galactopyranoside) for β-galactosidase were added into a 96-well microplate according to the instructions of the manufacturer. Androgen agonistic and antagonistic properties of the test compounds were determined by a colorimetric assay. For the antagonistic measurements the medium was supplemented with 5α-dihydrotestosterone (DHT). Once the reporter gene is expressed, β-galactosidase is secreted into the medium, and converts the yellow CPRG substrate into a red product, which can be quantified at 570 nm. Quantities of this red product correlate with the liberation of β-galactosidase, which is increased when an agonistic effect is present, while it is decreased when the test compound exerts an antagonistic effect. […]

SMILES: C[C@]12CC[C@H]3[C@@H](CCC4=CC(=O)CC[C@@H]43)[C@@H]1CC[C@H]2Cl [Compound 3]
- androgen antagonistic activity: no antagonistic activity
